One series concerns parasitemia. The settings on record: patients treated with artemisinin and its derivatives vs other antimalarial drugs; cited from earlier work.
Series [1] concerns RBCs re-suspended in saline / Ringer solution. The settings on record: cited from earlier work.
Series [2] concerns P. falciparum-infected RBCs (iRBCs). Kind of series: Microfluidic deformability cytometer: cell mobility after artesunate treatment. Format: cell-based, human. The settings on record: for iRBC deformability (cell mobility) after artesunate drug treatment: 0.01, 0.05 or 0.1 μg/ml artesunate, 2, 4 and 6 hours after treatment, synchronized rings ~15% parasitemia; for separation resolution between iRBCs and uRBCs: after artesunate drug treatment vs untreated. An excerpt: (§1) The device used in this example comprises a series of equally spaced triangular pillar arrays with pore sizes ranging from 2.5 to 4 um (FIG. 55A illustrates the case of 3 um pore size). Compared to the diameter of an average RBC (˜7.5 um), the smaller pore sizes are designed to impose similar mechanical constraints on the cells as if they are passing through blood capillaries and splenic meshwork. Driven by constant pressure gradient in the sub-Pascal-per-micrometer range, RBCs are able to deform substantially at each constriction and traverse along the channel. The dynamic deformability of RBCs is then characterized by their mobility: the ability to deform repeatedly in order to pass through multiple constrictions in series.
(§2) FIG. 55A depicts an experimental schematic of the microfluidic system. A heating chamber (Olympus) was mounted to the inverted microscope stage. Four heaters for the inner water bath, microscope stage, chamber top, and lens were designed to accurately control the ambient temperature inside the chamber. The PDMS-glass bonded device consists of the inlet and outlet reservoirs and main channels with triangular pillar arrays. It was placed inside the heating chamber with only the inlet reservoir connecting to an external syringe via a 20 cm-tubing. The reservoirs were 500×500 μm^2 squares with 20 μm-interspacing cylindrical pillar arrays; these pillar arrays could pre-filter white blood cells from whole blood, allowing only RBCs to pass through the main channels. Each of the parallel channels was 10 pillars wide and 200 pillars long. Along the flow direction, the inter-pillar spacing was 10 μm. This spacing allows deformed cells to recover and ready for subsequent deformations. Perpendicular to the flow direction, the pore size varied from 2.5 to 4 μm for different channels. Cells experience different levels of deformation when passing through these pores.
(§3) FIG. 55B presents microscopic screenshots illustrating both iRBCs and co-cultured uRBCs moving in the microchannel at different temperature conditions. The uninfected cells appear as dark shadows indicated by blue arrows, and the infected cells with thiazole orange (TO) staining appear as bright dots indicated by white arrows. The mobility of individual cells can then be derived by recording the time period for each cell passing through 10 constrictions in series (i.e. equivalent to 200 μm distance travelled). In this example, cell mobility is used to characterize the dynamic deformability of individual RBCs.
(§4) The deformability of both iRBCs and uRBCs were measured at 2, 4 and 6 hours after artesunate drug treatment (FIG. 60). A synchronized culture of rings with ˜15% parasitemia was resuspended at 0.1% hematocrit in malaria culture medium containing 0.01, 0.05 or 0.1 μg/ml of artesunate.
(§5) Layout program CleWin3.0 was used to design the microfluidic device, which consists of a 500×500 μm^2 inlet reservoir, a 500×500 μm^2 outlet reservoir, and parallel capillary channels with triangular pillar arrays (FIG. 55A). Three different pore-size of 2.5, 3.0 and 4.0 μm were designed for the capillary channels to test optimum deformation condition for the experiment. A silicon mold of the device was made using standard silicon processing techniques. The photolithography step was done using a 5× reduction step-and-repeat projection stepper (Nikon NSR2005i9, Nikon Prevision) and reactive-ion etching (RIE) techniques were used to give the mold a final depth of 4.2 μm. Final device was then casted from the silicon mold using polydimethylsiloxane (PDMS) and was sealed by a glass slide using oxygen plasma.
(§6) P. falciparum 3D7A parasites (from Malaria Research and Reference Reagent Source, American Type Culture Collection) were cultured in leukocyte-free human RBCs (Research Blood Components, Brighton Mass.) in RPMI 1640 complete medium as described (Trager and Jensen J. parasitol. 2005). […]

Series [3] has as its system co-cultured uninfected RBCs (uRBCs). The description is as above. Type of series: cell-based, human. The settings on record: 0.01, 0.05 or 0.1 μg/ml artesunate; 2, 4 and 6 hours after treatment.
Excerpt: as §1, §2, §3, §4, §5, §6

For another series, the system named is RBCs. Kind of series: Deformability cytometer: RBC velocity/passage after glutaraldehyde treatment. Type of series: cell-based, human. An excerpt: The device design includes periodically spaced, triangle-shaped pillars and the gaps between these pillars result in well-controlled constrictions for RBCs to pass. The height of the device was set to 4.2 μm. RBCs were forced to assume a flat orientation before entering each constriction. This height, in addition to filters at the reservoirs, prevented white blood cells from entering the device, and permitted diluted whole blood to be used directly.
A mold of the device was made on a silicon wafer using photolithography and reactive-ion etching techniques. A 5× reduction step-and-repeat projection stepper (Nikon NSR2005i9, Nikon Precision) was used for patterning. The spacing between pillars was 3 μm, and the depth of the device was 4.2 μm. The device was made using standard PDMS casting protocols and bonded to a glass slide.
PBS was mixed with 0.2% w/v Pluronic F-108 (BASF, Mount Olive, N.J.) and 1% w/v Bovine Serum Albumin (BSA) (Sigma-Aldrich, St. Louis, Mo.) as a stock solution to prevent RBC adhesion to the device walls. For the fluorescent bead experiments, 200 nm FluoSpheres europium luminescent microspheres (Molecular Probes, Eugene, Oreg.) diluted to a final concentration of 1.25×10^−5 percent solids were used.
In experiments involving blood, 1 μl of whole blood (˜50% hematocrit) was diluted in 100 μl of the PBS-pluronic-BSA solution for all of the experiments. […]

Entries after “also recorded” stand apart in the source; their conditions may differ.

`C[C@@H]1CC[C@H]2[C@@H](C)C(=O)O[C@@H]3O[C@@]4(C)CC[C@@H]1[C@]32OO4` [artemisinin]: the decline in parasitemia entry with parasitemia is recorded as “more rapid decline in parasitemia”.

As for Fibrinogen, the suspension viscosity result in series [1] (fibrinogen added progressively to washed RBCs in pure saline) is on record as “increase in viscosity with increasing fibrinogen concentration at low deformation rates”.

As to `C[C@H]1[C@H](OC(=O)CCC(=O)O)O[C@@H]2O[C@@]3(C)CC[C@H]4[C@H](C)CC[C@@H]1[C@@]24OO3` [artesunate], in series [2], the “iRBC deformability (cell mobility) after artesunate drug treatment” value is on record as “stiffening effect; also recorded: drop in iRBC deformability is more precipitous than in uRBC”; the “separation resolution between iRBCs and uRBCs” value was “almost doubled”. Further, in series [2] (listed as Artesunate), the “iRBC deformability (cell mobility) after artesunate drug treatment” value is listed as “significant decrease in cell mobility”; the “separation resolution between iRBCs and uRBCs” value is “doubled”. Also, the mobility decrease result in series [2] (2 and 4 hours after artesunate treatment, iRBCs and uRBCs both measured) is “smaller and less pronounced mobility decrease”. In series [2] (after 4 hour drug treatment, dosage range 0.01 to 0.1 μg/ml), the “dose dependence of mobility changes” value is on record as “no statistically significant dose dependence”. Moreover, the “uRBC deformability (cell mobility) after artesunate drug treatment” value in series [3] is “stiffening effect; also recorded: stiffened considerably”.

As for `O=CCCCC=O` [glutaraldehyde], in the series on RBCs (30 minutes in PBS, approx. 0.61 Pa/μm, FIG. 5B), the “RBC stiffness / velocity with increasing glutaraldehyde concentration” value is on record as “progressively stiffer with decreasing velocity”. The “RBC passage into the channel” value in the series on RBCs (glutaraldehyde concentrations greater than 0.003%) was “most RBCs were held up at the entrance to the channel”.

For the compound `CC=O` [acetaldehyde], the “RBC hardening / suspension viscosity” value in series [1] (prolonged exposure of clean RBCs to acetaldehyde, re-suspension in Ringer solution) is “constant suspension viscosity over the full range of hematocrit and shear rates”.

(Values after patent US20110293558A1, “MATERIAL PROPERTIES OF T CELLS AND RELATED METHODS AND COMPOSITIONS” (Massachusetts Institute of Technology, priority 2010, published 2011).)
